{
  "source": "patent US6432422B1",
  "about": "“Creams containing vitamin D3 derivatives” (Chugai Seiyaku Kabushiki Kaisha, priority 1997, dated 2002)",
  "origin": "cited, not measured here",
  "key": {"[1]": {"details": "organic solvents such as ethanol and chloroform"}},
  "data": [
    {"smiles": "C=C1/C(=C\\C=C2/CCC[C@]3(C)[C@@H]([C@H](C)OCCC(C)(C)O)CC[C@@H]23)C[C@@H](O)C[C@@H]1O", "note": "[Maxacalcitol, 1α,3β-dihydroxy-20α-(3-hydroxy-3-methylbutyloxy)-9,10-seco-5,7,10(19)-pregnatriene]", "values": [
      {"measurement": "effects on epidermal cells", "setting": "epidermal cells", "result": "epidermal cell growth-inhibiting and differentiation-inducing effects"},
      {"measurement": "stability in aqueous solutions", "setting": "aqueous solutions", "result": "unstable in aqueous solutions"},
      {"measurement": "stability in base materials", "setting": "base materials such as petrolatum", "result": "very high stability"},
      {"measurement": "solubility in organic solvents", "setting": "[1]", "result": "highly soluble"},
      {"measurement": "stability in organic solvents", "setting": "[1]", "result": "dramatically improved stability"},
      {"measurement": "solubility in water", "setting": "water", "result": "scarcely soluble in water"}
    ]}
  ]
}
